Data on ten compounds can be found in patent US20180008587A1, “THIOHYDANTOIN ANDROGEN RECEPTOR ANTAGONISTS FOR THE TREATMENT OF CANCER” (Jaressen Pharmaceutica NV, priority 2016, published 2018).

Holding throughout (format): cell-based
Test [1] addresses T1, wild-type Androgen Receptor (AR-wt) (Homo sapiens, UniProt P10275).
T1 construct: expressed in transfected cells; host or cells: LNCaP (LNCaP AR (cs))
T1 sequence (P10275 1-920): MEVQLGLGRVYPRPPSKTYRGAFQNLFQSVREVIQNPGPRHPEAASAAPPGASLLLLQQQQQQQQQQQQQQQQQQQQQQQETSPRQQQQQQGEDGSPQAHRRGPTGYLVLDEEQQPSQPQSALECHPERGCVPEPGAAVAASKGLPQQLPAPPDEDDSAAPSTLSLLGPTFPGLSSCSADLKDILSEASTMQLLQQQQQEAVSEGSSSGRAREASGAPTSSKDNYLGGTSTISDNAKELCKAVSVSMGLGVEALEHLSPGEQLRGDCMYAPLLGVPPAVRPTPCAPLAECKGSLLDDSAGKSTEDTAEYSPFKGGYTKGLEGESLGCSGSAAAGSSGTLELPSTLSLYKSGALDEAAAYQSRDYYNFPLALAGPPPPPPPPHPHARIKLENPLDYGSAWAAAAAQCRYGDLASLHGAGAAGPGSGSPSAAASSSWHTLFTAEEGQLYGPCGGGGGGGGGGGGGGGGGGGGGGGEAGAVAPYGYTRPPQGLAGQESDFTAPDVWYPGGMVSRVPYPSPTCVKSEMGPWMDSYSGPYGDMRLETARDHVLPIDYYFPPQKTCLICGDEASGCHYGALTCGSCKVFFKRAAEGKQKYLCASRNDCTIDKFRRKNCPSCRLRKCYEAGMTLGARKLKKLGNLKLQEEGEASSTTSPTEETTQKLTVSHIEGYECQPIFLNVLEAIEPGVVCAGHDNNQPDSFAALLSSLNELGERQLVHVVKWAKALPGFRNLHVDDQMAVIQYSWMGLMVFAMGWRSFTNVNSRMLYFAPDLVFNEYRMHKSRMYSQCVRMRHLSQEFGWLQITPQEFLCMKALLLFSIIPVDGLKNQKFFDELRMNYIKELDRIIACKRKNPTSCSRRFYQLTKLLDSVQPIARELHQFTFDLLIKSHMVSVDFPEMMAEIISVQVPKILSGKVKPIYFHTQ
The test is described as follows: LNCaP-AR-wt ANT reporter assay (ARE firefly luciferase, antagonist mode). Conditions: for IC50: antagonist mode, 400 pM R-1881 challenge, −Log10(IC50 [Molar]), read-out: LNCaP-AR-wt ANT pIC50 (converted); for Emax: read-out: LNCaP-AR-wt ANT MAX % Inh. The procedure, abridged: (§1)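 LNCaP cells stably expressing wild-type or F876L AR (puromycin-selected pooled populations) were cultured in charcoal-stripped serum medium. In antagonist mode, agonist challenge was 400 pM for wild-type and 600 pM for F876L.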

In test [2] the target is T1, wild-type Androgen Receptor (AR-wt). The test is described as follows: LNCaP-AR-wt AG reporter assay (ARE firefly luciferase, agonist mode). The settings on record: for Emax: read-out: LNCaP-AR-wt AG MAX % Stim. The procedure, abridged:
(§2)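 LNCaP stable pooled lines expressing ARE-firefly luciferase, in charcoal-stripped serum medium, were exposed to compounds; antagonist mode used agonist at 400 pM (WT) or 600 pM (F876L).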

Test [3] has as its target T2, F876L mutant Androgen Receptor (AR-F876L) (Homo sapiens, UniProt P10275, F877L).
T2 construct: expressed in transfected cells; host or cells: LNCaP (LNCaP F876L)
T2 sequence (P10275 1-920 F877L): T1 sequence (P10275 1-920) with F877L
Nature of the test: LNCaP-AR-F876L ANT reporter assay (ARE firefly luciferase, antagonist mode). The settings on record: for Emax: read-out: LNCaP-AR-F876L ANT MAX % Inh; for IC50: read-out: LNCaP-AR-F876L ANT pIC50 (converted). The procedure, abridged:
as §1
(In general: In a reporter assay the amount or activity of a reporter protein is the signal.)

Test [4] addresses T2, F876L mutant Androgen Receptor (AR-F876L). Nature of the test: LNCaP-AR-F876L AG reporter assay (ARE firefly luciferase, agonist mode). Conditions: for Emax: read-out: LNCaP-AR-F876L AG MAX % Stim. The procedure, abridged:
as §2

The mark [5] stands for this setting: maximum % inhibition of R1881 control response over tested concentration range.
[6] abbreviates: agonist mode, −Log10(EC50 [Molar]), read-out: LNCaP-AR-wt AG pEC50 (converted).
Setting [7] is: maximum % stimulation (agonist response) over tested concentration range.
The mark [8] stands for this setting: agonist mode, −Log10(EC50 [Molar]), read-out: LNCaP-AR-F876L AG pEC50 (converted).

Numbering of substitutions follows the chain as printed. Where two headings read alike, the source gives them in different places.

For the compound `Cc1cc(N2C(=O)C3(CCC3)N(c3ccc(C(=O)Nc4cccc(Cl)c4)c(F)c3)C2=S)cnc1C#N` [Cpd 78, N-(3-chlorophenyl)-4-[6-(6-cyano-5-methyl-3-pyridyl)-5-oxo-7-thioxo-6,8-diazaspiro[3.4]octan-8-yl]-2-fluoro-benzamide], the IC50 in test [1] is 1320 nM; in test [3] it was 1050 nM. The Emax in test [1] (setting [5]) was found to be 96.5%; in test [2] (setting [7]), 0.7%; in test [3] (setting [5]), 95.9%; in test [4] (setting [7]), 1%. In addition, the EC50 in test [2] (setting [6]) and in test [4] (setting [8]) was over 15100 nM in each case.

For `Cc1cc(N2C(=O)C3(CCC3)N(c3ccc(-c4cccnc4C)cc3)C2=S)cnc1C#N` [Cpd 119, 3-methyl-5-[8-[4-(2-methyl-3-pyridyl)phenyl]-5-oxo-7-thioxo-6,8-diazaspiro[3.4]octan-6-yl]pyridine-2-carbonitrile], the IC50 was 112 nM in test [1] and 158 nM in test [3]. The Emax in test [1] (setting [5]) was 97.7%; in test [2] (setting [7]) it was 2.2%; in test [3] (setting [5]), 96%; in test [4] (setting [7]), 3.9%. In addition, the EC50 in test [2] (setting [6]) and in test [4] (setting [8]) was over 15100 nM each time.

Turning to `N#Cc1ncc(N2C(=O)C3(CCC3)N(c3ccc(OCCCN4CCCC4)c(F)c3)C2=S)cc1C(F)(F)F` [Cpd 55, 5-[8-[3-fluoro-4-(3-pyrrolidin-1-ylpropoxy)phenyl]-5-oxo-7-thioxo-6,8-diazaspiro[3.4]octan-6-yl]-3-(trifluoromethyl)pyridine-2-carbonitrile], the IC50 was 813 nM in test [1] and 316 nM in test [3]. Further, the Emax is 101% in test [1], 0.7% in test [2], 100% in test [3] and 0.6% in test [4]. Further, the EC50 in test [2] and in test [4] was over 15100 nM throughout.

`CN1CCN(CCCNC(=O)c2ccc(N3C(=S)N(c4cnc(C#N)c(C(F)(F)F)c4)C(=O)C34CCC4)cc2F)CC1` [Cpd 108, 4-[6-[6-cyano-5-(trifluoromethyl)-3-pyridyl]-5-oxo-7-thioxo-6,8-diazaspiro[3.4]octan-8-yl]-2-fluoro-N-[3-(4-methylpiperazin-1-yl)propyl]benzamide]: the IC50 in test [1] was 813 nM; in test [3] it was 389 nM. In addition, the Emax in test [1] (setting [5]) amounted to 94.5%; in test [2] (setting [7]), 2.3%; in test [3] (setting [5]), 95.6%; in test [4] (setting [7]), 2.5%. Moreover, the EC50 in test [2] (setting [6]) and in test [4] (setting [8]) was over 15100 nM throughout.

In the case of `COCCNC(=O)c1ccc(N2C(=S)N(c3cnc(C#N)c(C(F)(F)F)c3)C(=O)C23CCC3)cc1F` [Cpd 46, 4-[6-[6-cyano-5-(trifluoromethyl)-3-pyridyl]-5-oxo-7-thioxo-6,8-diazaspiro[3.4]octan-8-yl]-2-fluoro-N-(2-methoxyethyl)benzamide], the IC50 is 891 nM in test [1] and 631 nM in test [3]. The Emax was 99.9% in test [1], -0.1% in test [2], 98.3% in test [3] and 0.2% in test [4]. Also, the EC50 in test [2] and in test [4] was over 15100 nM throughout.

Regarding `CC(C)CCNC(=O)c1ccc(N2C(=S)N(c3cnc(C#N)c(C(F)(F)F)c3)C(=O)C23CCC3)cc1F` [Cpd 27, 4-[6-[6-cyano-5-(trifluoromethyl)-3-pyridyl]-5-oxo-7-thioxo-6,8-diazaspiro[3.4]octan-8-yl]-2-fluoro-N-isopentyl-benzamide], the IC50 was 912 nM in test [1] and 631 nM in test [3]. Besides, the Emax in test [1] was 96.8%; in test [2] it was 0.4%; in test [3], 98.8%; in test [4] it was 0.2%. Further, the EC50 in test [2] and in test [4] was over 15100 nM throughout.

In the case of `Cc1cncc(-c2ccc(N3C(=S)N(c4cnc(C#N)c(C)c4)C(=O)C34CCC4)cc2)c1` [Cpd 114, 3-methyl-5-[8-[4-(5-methyl-3-pyridyl)phenyl]-5-oxo-7-thioxo-6,8-diazaspiro[3.4]octan-6-yl]pyridine-2-carbonitrile], the figures for the IC50 in test [1] and in test [3] were 240 nM and 355 nM, respectively. Besides, the Emax came to 98.7% in test [1], 0.7% in test [2], 97.8% in test [3] and 3.3% in test [4]. For the same compound, the EC50 in test [2] and in test [4] was over 15100 nM each time.

As to `N#Cc1ncc(N2C(=O)C3(CCC3)N(c3ccccc3)C2=S)cc1C(F)(F)F` [Cpd 70, 5-(5-oxo-8-phenyl-7-thioxo-6,8-diazaspiro[3.4]octan-6-yl)-3-(trifluoromethyl)pyridine-2-carbonitrile], the IC50 is 741 nM in test [1] and 513 nM in test [3]. Also, the Emax in test [1] came out at 99.2%; in test [2], 0.3%; in test [3], 99.5%; in test [4] it was 0.9%. Moreover, the EC50 in test [2] and in test [4] was over 15100 nM each time.

As to `N#Cc1ncc(N2C(=O)C3(CCC3)N(c3ccc(C(=O)NCCCN4CCCC4)c(F)c3)C2=S)cc1C(F)(F)F` [Cpd 118, 4-[6-[6-cyano-5-(trifluoromethyl)-3-pyridyl]-5-oxo-7-thioxo-6,8-diazaspiro[3.4]octan-8-yl]-2-fluoro-N-(3-pyrrolidin-1-ylpropyl)benzamide], the IC50 in test [1] was 1100 nM; in test [3], 158 nM. For the same compound, the Emax was 101% in test [1] (setting [5]), 0.4% in test [2] (setting [7]), 99.4% in test [3] (setting [5]) and 3.9% in test [4] (setting [7]). The EC50 in test [2] (setting [6]) and in test [4] (setting [8]) was over 15100 nM each time.

`N#Cc1ncc(N2C(=O)C3(CCC3)N(c3ccc(C(=O)NCc4cccnc4)c(F)c3)C2=S)cc1C(F)(F)F` [Cpd 67, 4-[6-[6-cyano-5-(trifluoromethyl)-3-pyridyl]-5-oxo-7-thioxo-6,8-diazaspiro[3.4]octan-8-yl]-2-fluoro-N-(3-pyridylmethyl)benzamide]: the IC50 in test [1] was 1260 nM; in test [3], 407 nM. Besides, the Emax in test [1] came out at 99.2%; in test [2] it was 1.5%; in test [3] it was 97.4%; in test [4] it was 0.8%. Also, the EC50 in test [2] and in test [4] was over 15100 nM in each case.
